Test results reported in patent US20240010678A1, “METHOD OF TREATMENT OF IRRITABLE BOWEL SYNDROME” (THE JOHNS HOPKINS UNIVERSITY, priority 2020, published 2024).
Entries after “also recorded” stand apart in the source; their conditions may differ.

How the values were obtained:
[1] = system: biofilms that mimic supragingival or cariogenic plaque; conditions: cited from earlier work
oral microorganisms = conditions: U.S. Pat. Nos. 7,494,980 and 8,778,889; cited from earlier work
pathogenic bacteria = assay: Selectivity of the antimicrobial peptide for pathogenic versus beneficial bacteria
[2] = system: microbial balance in the colon; assay: Effect on microbial balance in the colon; assay type: in vivo; conditions: FIG. 1 cited
Description: Using a novel comprehensive, high-density DNA microarray (PhyloChip) a phylogenetic analysis of the microbial community of the large bowel was performed. […] Even more striking was the dramatic change in the ratio of Firmicutes relative to Bacteroidetes, where “IBS” animals were enriched more with Bacteroidetes and also contained a different composition of species within this phylum.

mouse model of IBS = assay: Visceromotor reflex (VMR) response to colorectal distention (CRD) in a mouse model of IBS; assay type: in vivo; conditions: graded colorectal distention, KSL-W given intracolonically (FIG. 1), rifaximin FIG. 2
Description: Mouse pups at postnatal day 10 will receive a […] enema infusion with 0.5% acetic acid or saline. The pup will be gently held by hand with head down. A poly-ethylene tubing (PE-10) connected to a 100 ul Hamilton syringe is insert through the rectum into the distal colon about 1.5 cm from the anus. 20 μl of 0.5% acetic acid or saline is infused slowly (about second). The pups are put back with dam and wean at 3 weeks old. The mice are allowed to grow into adulthood (8-12 weeks) when they are ready for test of hypersensitivity (increased pain to graded painful stimulus).
Visceromotor reflex (VMR) and Abdominal Withdrawal Reflex (AWR) response to colorectal distention (CRD) for assessing visceral pain sensitivity. The VMR is a reflex measured using an electromyographic (EMG) recording obtained from the external oblique muscle. […] Then, 30-45 min later, the VMR response to CRD is measured by EMG.
Procedure of electrodes implantation: Under a cocktail of Ketamine/Xylazine (80:8 mg/kg body weight) or 1-2% isoflurane. adult mice undergo surgery to implant abdominal electrodes. The depth of anesthesia will be assessed by pinching the toes for a toe pinch response (negative) every 15 minutes during the surgical procedure. […]
EMG response to CRD: EMG is recorded from two externalized electrodes implanted in the external oblique muscle by using CED 1401 plus and Spike 2 software. […]

Row | Molecule | prevention of biofilm formation [1] | antibacterial activity / inhibition of growth of oral microorganisms (oral microorganisms) | selectivity against pathogenic versus beneficial bacteria (pathogenic bacteria) | microbial balance in the colon [2] | pain behavior (VMR response to colorectal distention) (mouse model of IBS)
1 | NH2-Lys-Lys-Val-Val-Phe-Lys-Val-Lys-Phe-Lys-CO NH2 (H-KKVVFKVKFK-NH2) [KSL, antimicrobial decapeptide] | effective in preventing the formation of biofilms that mimic supragingival or cariogenic plaque | possess a broad range of antibacterial activity; also recorded: inhibiting the growth of various oral microorganisms |  |  | 
2 | NH2-Lys-Lys-Val-Val-Phe-Trp-Val-Lys-Phe-Lys-CO NH2 (H-KKVVFWVKFK-NH2) [KSL-W, L-tryptophan analog of KSL; L-lysine at position six replaced with L-tryptophan] |  |  | works against pathogenic bacteria but spares beneficial ones; also recorded: selective against pathogenic bacteria but not beneficial bacteria | resets the microbial balance in the colon | attenuates pain behavior
3 | CO[C@H]1/C=C/O[C@@]2(C)Oc3c(C)c(O)c4c(O)c(c5c(nc6cc(C)ccn65)c4c3C2=O)NC(=O)/C(C)=C\C=C\[C@H](C)[C@H](O)[C@@H](C)[C@@H](O)[C@@H](C)[C@H](OC(C)=O)[C@@H]1C [rifaximin, reference compound] |  |  |  |  | attenuates pain behavior
